Data as given in patent publication US20090123555A1, “Stimulateable Polymer Particles Exhibiting Reactive Functions, Method for the Production and the Use Thereof” (CENTRE NATIONAL DE LA RECHER CHE SCIENTIFIQUE, priority 2004, published 2009).

Assay: Release of the active ingredient from the particle by lowering of the pH, followed by UV-visible spectrometry
Assay type: physicochemical
From the text: Once the particle was synthesised we verified by UV-visible spectrometry the possibility of releasing the medicament by simple lowering of the pH.

release of the medicament by simple lowering of the pH (lowering of the pH, release from the particle): progressive and controlled release | indomethacin salted out (released) from the particle (pH equal to 3, in 48 hours, indomethacin covalently bonded inside the particle (NB-PCL-POE-OMe stabilised latex)): more than 85%
SMILES: COc1ccc2c(c1)c(CC(=O)O)c(C)n2C(=O)c1ccc(Cl)cc1 [indomethacin]
